The experiment has as its target Tyrosine-protein phosphatase non-receptor type 22 (Homo sapiens) (UniProt Q9Y2R2). Kind of experiment: PTPN22 enzyme inhibition – biochemical, DiFMUP fluorescence, retest and dose response, confirmation (AID 1253). The note with it: recombinant LYP; for inhibition: at 10 µM, hits give high values.

In general, IC50 refers to the point on the concentration scale where inhibition reaches its midpoint.

Active and inactive are the calls of the source.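 How the source made its calls: active means IC50 under 10 µM in the follow-up dose response; inactive means IC50 10 µM or more, or under 40% single-dose inhibition.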

Tyrosine-protein phosphatase non-receptor type 22 (Homo sapiens), sequence (Q9Y2R2 whole entry, looked up): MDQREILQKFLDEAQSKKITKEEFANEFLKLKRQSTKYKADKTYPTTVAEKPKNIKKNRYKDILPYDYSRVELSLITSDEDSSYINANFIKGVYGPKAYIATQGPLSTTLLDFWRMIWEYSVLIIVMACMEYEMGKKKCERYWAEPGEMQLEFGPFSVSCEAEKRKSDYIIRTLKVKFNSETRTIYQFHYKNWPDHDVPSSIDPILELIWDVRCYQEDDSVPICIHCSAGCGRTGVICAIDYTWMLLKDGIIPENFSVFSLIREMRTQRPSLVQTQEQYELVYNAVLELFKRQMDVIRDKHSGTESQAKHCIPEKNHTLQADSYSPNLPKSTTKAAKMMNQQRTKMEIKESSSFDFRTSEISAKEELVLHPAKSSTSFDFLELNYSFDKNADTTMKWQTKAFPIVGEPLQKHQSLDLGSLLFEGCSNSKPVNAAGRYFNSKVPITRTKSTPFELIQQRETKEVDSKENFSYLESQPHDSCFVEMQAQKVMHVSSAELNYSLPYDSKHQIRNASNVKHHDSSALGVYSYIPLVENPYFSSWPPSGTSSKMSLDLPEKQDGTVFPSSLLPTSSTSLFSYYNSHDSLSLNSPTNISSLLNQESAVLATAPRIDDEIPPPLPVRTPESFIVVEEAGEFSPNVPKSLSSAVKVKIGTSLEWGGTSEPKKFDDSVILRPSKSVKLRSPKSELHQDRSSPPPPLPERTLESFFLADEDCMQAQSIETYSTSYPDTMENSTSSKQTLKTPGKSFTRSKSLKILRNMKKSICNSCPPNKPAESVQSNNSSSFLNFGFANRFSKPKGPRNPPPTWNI

`CCOC(=O)c1c(-n2c(C)cc(C=C3C(=O)NC(=S)NC3=O)c2C)sc2c1CCCC2`: the inhibition result is “inactive”. As to `Cc1ccc(CSc2nnc(-c3ccccc3N)c(=O)[nH]2)cc1`, the inhibition result is “inactive”. The same measure, in the same setting: with `CCOC(=O)C1=C(C)OC(N)=C(C#N)C1c1c(C)nn(-c2ccc(C)cc2)c1Cl` (configuration not stated) the entry was “inactive”. Consider `Cc1ccc(C(=O)n2nc(-c3ccco3)nc2N)cc1`, for which the inhibition result was “inactive”. Consider `Cc1c2cc(O)c(=O)cc-2oc2cc(O)c(O)cc12`, for which the IC50 is 0.48 µM. On to `Cc1nnc(SCC(=O)N/N=C/c2cn(-c3ccccc3)nc2-c2ccccc2)n1-c1ccccc1`, for which the inhibition result was “inactive”. Still for that read-out and setting: with `Cc1cc(C(C)(C)C)cc(C)c1COC(=O)C1CCC(=O)N1` (configuration not stated) the entry was “inactive”; with `Cc1cc2c(cc1C)N(C(=O)CSC1=NCCS1)C(C)(C)c1ssc(=S)c1-2`, “inactive”; with `Cc1ccc(-c2nc3ccccc3[nH]2)cc1NC(=O)c1sc2ccccc2c1Cl`, “inactive”.

With `CCOC(=O)c1c(N2C(=O)Nc3cc(Cl)c(Cl)cc3N2O)sc2c1CCCCC2`, the inhibition result was “inactive”.

As for `Cc1ccc(C(=O)NNC(=O)CSc2nnc3c(n2)[nH]c2ccc(F)cc23)cc1`, the inhibition entry was “inactive”.

Take `O=C(N/N=C/c1ccncc1)c1cc([N+](=O)[O-])cc([N+](=O)[O-])c1O`: the inhibition entry is “inactive”. For `O=C(Nc1ccc(N2CCCCC2)c(Cl)c1)c1ccc2c(c1)OCCO2`, the inhibition entry was “inactive”. On the same count and under the same terms, with `N#Cc1ccccc1CN1C(=O)S/C(=C/c2cccn2-c2cccc(C(=O)O)c2)C1=O` the entry was “inactive”; with `CCNC(=S)NNC(=O)c1cccn(Cc2ccc(Cl)cc2Cl)c1=O`, “inactive”; with `O=C(c1ccc(Cl)cc1)c1cnc(-c2ccc(Cl)cc2)s1`, “inactive”. On the same count and under the same terms, in the case of `O=C(Cn1c2ccccc2c(=O)c2ccccc21)N/N=C/c1cc([N+](=O)[O-])ccc1N1CCCCCC1` it was “inactive”; in that of `O=C(N/N=C/c1ccc2ccccc2c1)c1ccc(COc2ccc3c(c2)CCC3)o1`, “inactive”. Still for that read-out and setting: with `O=C(N/N=C/C=C/c1ccccc1)c1cc2c(ccc3ccccc32)o1` the entry was “inactive”.

As to `O=c1c(-c2nnc(SCc3ccc(Cl)cc3Cl)o2)cccn1Cc1ccccc1`, the inhibition result is “inactive”. Take `Cn1nc(-c2ccc(Cl)cc2)nc2c(=O)n(C)c(=O)nc1-2`: the IC50 is > 10 µM (inactive). For `CC(/C=N/n1c(C2CCCCC2)n[nH]c1=S)=C\c1ccccc1`, the inhibition result is “inactive”. On the same count and under the same terms, in the case of `COc1cnc(-c2ccccn2)nc1Sc1ccc(Cl)cc1` it was “inactive”; in that of `Cc1nc(S/C(=C/c2ccc(-c3cccc(Cl)c3)o2)C(=O)O)n[nH]1`, “inactive”; in that of `Cc1ccc(NC(=O)CN2C(=O)S/C(=C\c3ccc(-c4cccc(C(=O)O)c4C)o3)C2=O)cc1`, “inactive”. On the same count and under the same terms, in the case of `Cc1ccc(C)c(OCC(=O)N/N=C/c2c(C)nn(-c3ccccc3)c2Cl)c1` it was “inactive”. On the same count and under the same terms, with `Cc1ccc(-c2nn(CC(=O)NCc3cc(-c4nn(C)c(=O)c5ccccc45)ccc3C)c(=O)c3ccccc23)cc1` the entry was “inactive”; with `Cc1cc(C)n2c(SCC(=O)N3CCN(S(=O)(=O)c4ccc(Cl)cc4)CC3)nnc2n1`, “inactive”. Turning to `Cc1cc(C)n2nc(SCc3cc(=O)oc4cc(O)ccc34)nc2n1`, the inhibition result is “inactive”. For the compound `COc1ccc2nc(SCc3cnc(C)nc3N)[nH]c2c1`, the inhibition result was “inactive”. Still for that read-out and setting: in the case of `COc1cccc(-c2nnc(NC(=O)c3ccc(S(=O)(=O)N(CC(C)C)CC(C)C)cc3)o2)c1` it was “inactive”. On the same count and under the same terms, in the case of `CCCC1COC(Cn2cncn2)(c2ccc(Cl)cc2Cl)O1` (configuration not stated) it was “inactive”; in that of `CCOC(=O)c1c2ccc(OCC(=O)N/N=C/c3ccc(C)cc3)cc2n2ccccc12`, “inactive”; in that of `COCc1cc(C)nc(Nc2ccccc2C)c1C#N`, “inactive”. The same measure, in the same setting: with `Cc1ccc(-n2nc3c4c(cccc4c2=O)-c2ccccc2-3)cc1` the entry was “inactive”; with `CCN(CC(=O)NC(=O)NC1CCCCC1)Cc1nc2ccccc2c(=O)[nH]1`, “inactive”.

As to `Cc1ccc2nc(NC(=S)NC(=O)c3cccs3)sc2c1`, the inhibition result is “inactive”.

With `COc1ccc(NC(=O)C2CCCO2)cc1Cl` (configuration not stated), the inhibition result is “inactive”. On the same count and under the same terms, in the case of `CCCCNS(=O)(=O)c1ccc(NS(=O)(=O)c2c(C)cc(C)cc2C)cc1` it was “inactive”.

Regarding `Cc1cc(-c2csc(N)n2)c(C)n1CCC(C)C`, the inhibition result was “inactive”. Same read-out and setting: in the case of `COc1ccc2cc3cc(C(=O)N4CCN(Cc5ccc6c(c5)OCO6)CC4)oc3nc2c1` it was “inactive”; in that of `Cc1ccc(Nc2cc(C)nn2-c2nc(C)cc(=O)[nH]2)cc1`, “inactive”; in that of `CCCSc1nc(C)c(-c2csc(C(C#N)=C3CCCC3)n2)cc1C#N`, “inactive”.

As for `CCn1nc(C(=O)OCC(=O)c2cc(C)n(Cc3cccs3)c2C)c2ccccc2c1=O`, the inhibition entry is “inactive”. With `CNC(=S)NNC(=O)c1cccn(Cc2ccc(Cl)cc2Cl)c1=O`, the inhibition entry is “inactive”. On to `Cc1ccc(-c2nnc(CSc3nnc(COc4cccc5ccccc45)n3-c3ccccc3)o2)cc1`, for which the inhibition entry is “inactive”. On the same count and under the same terms, with `Cc1nc2c(c(=O)n1CCC1=CCCCC1)c1nc3ccccc3nc1n2/N=C/c1ccccc1` the entry was “inactive”. For `COc1cc(OC)cc(C(=O)Nc2ccccc2C(=O)N2CCCC2)c1`, the inhibition result is “inactive”. Still for that read-out and setting: in the case of `CNC(=S)NNC(=O)c1cccn(Cc2cccc(Cl)c2)c1=O` it was “inactive”; in that of `CC(=O)NC1CC2CCCC(C1)N2C(=O)Nc1ccccc1` (configuration not stated), “inactive”; in that of `CCOc1ccc(N(CC(=O)Nc2ccccc2C(=O)NCc2ccco2)S(C)(=O)=O)cc1`, “inactive”.

Regarding `CCc1ccc2nc(NC(=O)c3ccc4c(=O)[nH]c(CN5CCOCC5)nc4c3)sc2c1`, the inhibition result is “inactive”. The same measure, in the same setting: in the case of `COc1cccc(/C=N/NC(=O)c2ccc(-c3ccccc3)cc2)c1O` it was “inactive”. Still for that read-out and setting: in the case of `COc1ccc(-n2nnnc2SCC(=O)c2ccc(O)c(O)c2)cc1` it was “inactive”; in that of `Brc1ccc2nc(CSc3ncn[nH]3)cn2c1`, “inactive”; in that of `CC1CCc2c(sc(NC(=O)c3ccc(Cn4cc([N+](=O)[O-])cn4)o3)c2C#N)C1` (configuration not stated), “inactive”. Same read-out and setting: with `Cc1cc(SCC(=O)N/N=C/c2ccc(O)c(O)c2O)c(C)cc1Br` the entry was “inactive”; with `c1ccc(-c2cc(-c3nnc4n3N=C(c3ccc5ccccc5c3)CS4)[nH]n2)cc1`, “inactive”; with `Cc1sc(NC(=O)c2sc3nc4c(C)cccc4cc3c2N)c(C#N)c1C`, “inactive”. With `COc1cccc(OC)c1-c1nn2c(-c3cc(-c4ccccc4)n[nH]3)nnc2s1`, the IC50 was 4.71 µM. For `O=C(CSc1nc2ccccc2c2nc3ccccc3n12)NCc1ccco1`, the inhibition entry was “inactive”. Still for that read-out and setting: with `CCn1c(CSc2nc3ccccc3s2)nnc1SCC(=O)c1ccc(O)c(O)c1` the entry was “inactive”. On the same count and under the same terms, with `O=C(Cc1cnn(-c2ccccc2)c1)c1ccc(O)c(O)c1O` the entry was “inactive”. Still for that read-out and setting: in the case of `Cc1nnc(NC(=O)Nc2ccc(Cl)c(Cl)c2)s1` it was “inactive”; in that of `CCc1nnc(NS(=O)(=O)c2ccc(NC(=S)NC(=O)/C=C/c3ccc(C(C)C)cc3)cc2)s1`, “inactive”. In the case of `O=c1c(/C=N/Nc2ccccc2)c(Sc2nnnn2-c2ccccc2)nc2ccccn12`, the inhibition entry was “inactive”.

Turning to `CCCCCCCCC/C(=N\O)c1ccccn1`, the inhibition result was “inactive”.

Take `Nc1c(C(=O)Nc2nc3ccccc3s2)sc2nc(-c3cccs3)ccc12`: the IC50 is 1.24 µM.

Turning to `O=C(CSc1nnc(-c2ccc(Cl)s2)o1)N1CCCc2ccccc21`, the inhibition entry was “inactive”.

For `O=S(=O)(Nc1nc(-c2sccc2Cl)cs1)c1cc(Cl)ccc1Cl`, the inhibition entry was “inactive”. Regarding `O=C(N/N=C/c1cccc([N+](=O)[O-])c1)c1cc2c(ccc3ccccc32)o1`, the inhibition result is “inactive”.

Turning to `COc1ccccc1OCc1nnc(SCC(=O)NCc2ccco2)n1Cc1ccco1`, the inhibition entry is “inactive”. In the case of `O=C(CN(C(=O)CNC(=O)c1ccco1)c1ccc2c(c1)OCO2)NC1CCCCC1`, the inhibition result was “inactive”.

`Cc1ccc2c(Cl)cc(Cl)c(OCC(=O)NCc3ccco3)c2n1`: the inhibition result was “inactive”. Still for that read-out and setting: in the case of `O=C(COc1ccccc1C(=O)N/N=C\c1ccc(O)c(O)c1)N/N=C/c1ccc(O)c(O)c1` it was “inactive”. On the same count and under the same terms, in the case of `O=C(OCC1OC(n2cnc3c(N(C(=O)c4ccccc4)C(=O)c4ccccc4)ncnc32)C(O)C1F)c1ccccc1` (configuration not stated) it was “inactive”; in that of `O=C(Nc1ccc2oc(-c3cccc4ccccc34)nc2c1)c1ncn[nH]1`, “inactive”.

Regarding `COc1c(N2CCN(C(=S)NCc3ccccc3)C(C)C2)c(F)cc2c(=O)c(C(=O)O)cn(C3CC3)c12` (configuration not stated), the inhibition entry was “inactive”.

Regarding `N#Cc1nc(-c2ccc(OCc3ccc(Cl)cc3)cc2)oc1NCCCn1ccnc1`, the inhibition entry was “inactive”. Same read-out and setting: with `O=C(CSc1nnc(-c2cccs2)n1-c1cccc(Cl)c1)c1cccc2c1OCCO2` the entry was “inactive”. On the same count and under the same terms, in the case of `Nc1c(C(=O)NCc2ccco2)c2nc3ccccc3nc2n1CCc1ccccc1F` it was “inactive”; in that of `CCCn1c(Nc2ccc(Cl)cc2)nc2ccccc21`, “inactive”.

As for `COc1ccc(NC(=O)CSc2ccc3c4c(cccc24)C(=O)c2ccccc2-3)cc1`, the inhibition result is “inactive”. Still for that read-out and setting: in the case of `O=C(Nc1ccc(-c2nc3ccc(NC(=O)c4cccs4)cc3[nH]2)cc1)c1cccs1` it was “inactive”. Take `COc1cc(-c2nnc(SCc3cc(=O)oc4cc(O)c(O)cc34)o2)cc(OC)c1OC`: the 50% inhibitory concentration (IC50) was 2.6 µM. As for `O=C(NNC(=O)c1cc2cc3ccccc3nc2s1)c1cccc(Cl)c1`, the inhibition entry was “inactive”. On the same count and under the same terms, in the case of `Cc1ccc2nc(NC(=O)c3cccc(-c4cc5ccccc5oc4=O)c3)sc2c1` it was “inactive”.

These data come from PubChem BioAssay AID1253 (Columbia University Molecular Screening Center, 2008).
